# Source: US6274715A, “Tricyclic erythromycin derivatives” (priority 1997, dated 2001)
# How the values were obtained:
# Format in all cases: cell-based
# [1] = test system: STAPHYLOCOCCUS AUREUS A-5278; assay: In vitro antibacterial activity, MIC, BHI agar dilution; settings: S. aureus A-5278, unit assumed
# [2] = test system: STAPHYLOCOCCUS EPIDERMIDIS 3519; settings: S. epidermidis 3519; BHI agar; unit assumed
# CANDIDA ALBICANS CCH 442 = assay: In vitro antibacterial activity, MIC, BHI agar dilution; settings: C. albicans CCH 442, unit assumed
# ESCHERICHIA COLI KNK 437 = settings: E. coli KNK 437; BHI agar; unit assumed
# [3] = test system: STREPTOCOCCUS PYOGENES 930; assay: In vitro antibacterial activity, MIC, BHI agar dilution; settings: S. pyogenes 930, unit assumed
# ESCHERICHIA COLI H560 = assay: as above; settings: E. coli H560, unit assumed
# [4] = test system: STAPHYLOCOCCUS AUREUS CMX 553; assay: as above; settings: S. aureus CMX 553, unit assumed
# [5] = test system: PSEUDOMONAS AERUGINOSA K799/WT; assay: as above; settings: P. aeruginosa K799/WT, unit assumed
# [6] = test system: ENTEROBACTER AEROGENES ATCC 13048; assay: as above; settings: E. aerogenes ATCC 13048, unit assumed
# ESCHERICHIA COLI DC-2 = assay: as above; settings: E. coli DC-2, unit assumed
# PSEUDOMONAS CEPACIA 296I = assay: as above; settings: P. cepacia 296I, unit assumed
# [7] = test system: PSEUDOMONAS AERUGINOSA 5007; assay: as above; settings: P. aeruginosa 5007, unit assumed
# [8] = test system: KLEBSIELLA PNEUMONIAE ATCC 8045; assay: as above; settings: K. pneumoniae ATCC 8045, unit assumed
# [9] = test system: PSEUDOMONAS AERUGINOSA BMH10; assay: as above; settings: P. aeruginosa BMH10, unit assumed
# [10] = test system: PSEUDOMONAS AERUGINOSA K799/61; assay: as above; settings: P. aeruginosa K799/61, unit assumed
# [11] = test system: ACINETOBACTER CALCOACETICUS CMX 669; assay: as above; settings: A. calcoaceticus CMX 669, unit assumed
# [12] = test system: STAPHYLOCOCCUS AUREUS NCTC10649M; assay: as above; settings: S. aureus NCTC10649M, unit assumed
# [13] = test system: MYCOBACTERIUM SMEGMATIS ATCC 114; assay: as above; settings: M. smegmatis ATCC 114, unit assumed
# [14] = test system: PSEUDOMONAS AERUGINOSA DPHD-2862; assay: as above; settings: P. aeruginosa DPHD-2862, unit assumed
# [15] = test system: STAPHYLOCOCCUS AUREUS 1775; assay: as above; settings: S. aureus 1775, unit assumed
# [16] = test system: STAPHYLOCOCCUS AUREUS A5177; assay: as above; settings: S. aureus A5177, unit assumed
# [17] = test system: STAPHYLOCOCCUS AUREUS ATCC 6538P; assay: as above; settings: S. aureus ATCC 6538P, 35-37° C., 20 to 24 hours, unit assumed
# [18] = test system: STAPHYLOCOCCUS AUREUS CMX 642A; assay: as above; settings: S. aureus CMX 642A, unit assumed
# [19] = test system: PSEUDOMONAS AERUGINOSA DPHD-5263; assay: as above; settings: P. aeruginosa DPHD-5263, unit assumed
# STR[…] 508 = assay: as above; settings: S. agalactiae CMX 508, unit assumed
# How it was run: (§1)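 BHI agar dilution: twelve plates with successive compound dilutions, inoculated by replicator with 1:100 culture dilutions (1:10 for slow growers such as Micrococcus and Streptococcus), 20 to 24 hours at 35-37° C. MIC was the lowest concentration giving no growth, slight haze or sparse isolated colonies versus drug-free control; erythromycin A as class reference.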
# M[…] ATCC 9341 = assay: as above; settings: M. luteus ATCC 9341, unit assumed
# How it was run: as §1
# M[…] ATCC 4698 = assay: as above; settings: M. luteus ATCC 4698, unit assumed
# How it was run: as §1
# EN[…] ATCC 8043 = assay: as above; settings: E. faecium ATCC 8043, unit assumed
# How it was run: as §1
# [20] = test system: STREPTOCOCCUS PYOGENES PIU 2548; assay: as above; settings: S. pyogenes PIU 2548, unit assumed
# [21] = test system: STREPTOCOCCUS PYOGENES EES61; assay: as above; settings: S. pyogenes EES61, unit assumed
# [22] = test system: PROVIDENCIA STUARTII CMX 640; settings: P. stuartii CMX 640; BHI agar; unit assumed
# [23] = test system: STREPTOCOCCUS BOVIS A-5169; assay: In vitro antibacterial activity, MIC, BHI agar dilution; settings: S. bovis A-5169, unit assumed
# ESCHERICHIA COLI SS = assay: as above; settings: E. coli SS, unit assumed
# ESCHERICHIA COLI JUHL = settings: E. coli JUHL; BHI agar; unit assumed
SMILES,MIC [1] [µg/mL],MIC [2] [µg/mL],MIC (CANDIDA ALBICANS CCH 442) [µg/mL],MIC (ESCHERICHIA COLI KNK 437) [µg/mL],MIC [3] [µg/mL],MIC (ESCHERICHIA COLI H560) [µg/mL],MIC [4] [µg/mL],MIC [5] [µg/mL],MIC [6] [µg/mL],MIC (ESCHERICHIA COLI DC-2) [µg/mL],MIC (PSEUDOMONAS CEPACIA 296I) [µg/mL],MIC [7] [µg/mL],MIC [8] [µg/mL],MIC [9] [µg/mL],MIC [11] [µg/mL],MIC [13] [µg/mL],MIC [14] [µg/mL],MIC [15] [µg/mL],MIC [18] [µg/mL],MIC [19] [µg/mL],other results
CC[C@H]1OC(=O)[C@H](C)C(=O)[C@H](C)[C@@H](O[C@@H]2O[C@H](C)C[C@H](N(C)C)[C@H]2O)[C@](C)(OC)C[C@@H](C)C2=NC[C@@H](C)N3C(=O)O[C@@]1(C)[C@H]3[C@H]2C [Example 9],> 100,0.39,> 100,100,> 100,25,0.39,100,25,25,> 100,> 100,25,100,12.5,3.1,> 100,> 100,0.39,> 100,MIC [10]: 6.2 µg/mL; MIC [12]: 0.2 µg/mL; MIC [16]: 0.39 µg/mL; MIC [17]: 0.39 µg/mL; MIC (STR[…] 508): 0.01 µg/mL; MIC (M[…] ATCC 9341): 0.1 µg/mL; MIC (M[…] ATCC 4698): 0.39 µg/mL; MIC (EN[…] ATCC 8043): 0.05 µg/mL; MIC [20]: 0.39 µg/mL; MIC [21]: 0.01 µg/mL; MIC [22]: > 100 µg/mL
CC[C@H]1OC(=O)[C@H](C)C(=O)[C@H](C)[C@@H](O[C@@H]2O[C@H](C)C[C@H](N(C)C)[C@H]2O)[C@](C)(OC)C[C@@H](C)C2=NC[C@H](CO)N3C(=O)O[C@@]1(C)[C@H]3[C@H]2C [Example 63],> 100,0.78,> 100,> 100,> 100,50,1.56,> 100,> 100,> 100,> 100,> 100,> 100,> 100,100,6.2,> 100,> 100,1.56,> 100,MIC [23]: 0.05 µg/mL; MIC [12]: 0.78 µg/mL; MIC [16]: 0.78 µg/mL; MIC [17]: 0.78 µg/mL; MIC (STR[…] 508): 0.2 µg/mL; MIC (M[…] ATCC 9341): 0.2 µg/mL; MIC (M[…] ATCC 4698): 0.78 µg/mL; MIC (EN[…] ATCC 8043): 0.2 µg/mL; MIC (ESCHERICHIA COLI SS): 0.78 µg/mL; MIC [21]: 0.1 µg/mL; MIC [22]: > 100 µg/mL
CC[C@H]1OC(=O)[C@H](C)C(=O)[C@H](C)[C@@H](O[C@@H]2O[C@H](C)C[C@H](N(C)C)[C@H]2O)[C@](C)(OC)C[C@@H](C)C2=N[C@H](COCc3ccccc3Cl)CN3C(=O)O[C@@]1(C)[C@H]3[C@H]2C [Example 78],100,0.39,100,> 100,25,> 100,0.78,> 100,> 100,> 100,> 100,> 100,> 100,> 100,100,0.78,> 100,100,0.78,> 100,MIC [23]: ≤ 0.005 µg/mL; MIC [10]: 3.1 µg/mL; MIC [12]: 0.39 µg/mL; MIC [17]: 0.39 µg/mL; MIC (ESCHERICHIA COLI JUHL): > 100 µg/mL; MIC (STR[…] 508): ≤ 0.005 µg/mL; MIC (M[…] ATCC 9341): 0.02 µg/mL; MIC (M[…] ATCC 4698): 0.39 µg/mL; MIC (EN[…] ATCC 8043): 0.05 µg/mL; MIC [20]: 0.2 µg/mL; MIC (ESCHERICHIA COLI SS): 1.56 µg/mL; MIC [21]: ≤ 0.005 µg/mL; MIC [22]: > 100 µg/mL
CC[C@H]1OC(=O)[C@H](C)C(=O)[C@H](C)[C@@H](O[C@@H]2O[C@H](C)C[C@H](N(C)C)[C@H]2O)[C@](C)(OC)C[C@@H](C)C2=N[C@H](COCc3ccc(Cl)cc3)CN3C(=O)O[C@@]1(C)[C@H]3[C@H]2C [Example 79],100,0.39,100,> 100,50,> 100,0.39,> 100,> 100,> 100,100,> 100,> 100,> 100,100,0.78,> 100,100,0.39,> 100,MIC [23]: 0.01 µg/mL; MIC [10]: 3.1 µg/mL; MIC [12]: 0.39 µg/mL; MIC [17]: 0.39 µg/mL; MIC (ESCHERICHIA COLI JUHL): > 100 µg/mL; MIC (STR[…] 508): ≤ 0.005 µg/mL; MIC (M[…] ATCC 9341): 0.05 µg/mL; MIC (M[…] ATCC 4698): 0.39 µg/mL; MIC (EN[…] ATCC 8043): 0.1 µg/mL; MIC [20]: 0.39 µg/mL; MIC (ESCHERICHIA COLI SS): 1.56 µg/mL; MIC [21]: 0.01 µg/mL; MIC [22]: > 100 µg/mL
CC[C@H]1OC(=O)[C@H](C)C(=O)[C@H](C)[C@@H](O[C@@H]2O[C@H](C)C[C@H](N(C)C)[C@H]2O)[C@](C)(OC)C[C@@H](C)C2=N[C@H](COCc3cccc(Cl)c3)CN3C(=O)O[C@@]1(C)[C@H]3[C@H]2C [Example 80],100,0.39,100,> 100,50,> 100,0.39,> 100,> 100,> 100,100,> 100,> 100,> 100,100,1.56,> 100,100,0.39,> 100,MIC [23]: ≤ 0.005 µg/mL; MIC [10]: 3.1 µg/mL; MIC [17]: 0.39 µg/mL; MIC (ESCHERICHIA COLI JUHL): > 100 µg/mL; MIC (STR[…] 508): ≤ 0.005 µg/mL; MIC (M[…] ATCC 9341): 0.05 µg/mL; MIC (M[…] ATCC 4698): 0.2 µg/mL; MIC (EN[…] ATCC 8043): 0.05 µg/mL; MIC [20]: 0.2 µg/mL; MIC (ESCHERICHIA COLI SS): 1.56 µg/mL; MIC [21]: 0.01 µg/mL; MIC [22]: > 100 µg/mL
CC[C@H]1OC(=O)[C@H](C)C(=O)[C@H](C)[C@@H](O[C@@H]2O[C@H](C)C[C@H](N(C)C)[C@H]2O)[C@](C)(OC)C[C@@H](C)C2=NC3CN(CCOC)CC3N3C(=O)O[C@@]1(C)[C@H]3[C@H]2C (some centres unmarked) [Example 126],> 100,1.56,> 100,> 100,> 100,> 100,1.56,> 100,> 100,> 100,> 100,> 100,> 100,> 100,100,12.5,> 100,> 100,1.56,> 100,MIC [23]: 0.02 µg/mL; MIC [10]: 3.1 µg/mL; MIC (ESCHERICHIA COLI JUHL): > 100 µg/mL; MIC (STR[…] 508): 0.05 µg/mL; MIC (M[…] ATCC 9341): 0.2 µg/mL; MIC (M[…] ATCC 4698): 0.78 µg/mL; MIC (EN[…] ATCC 8043): 0.2 µg/mL; MIC [20]: 1.56 µg/mL; MIC (ESCHERICHIA COLI SS): 0.78 µg/mL; MIC [21]: 0.05 µg/mL; MIC [22]: > 100 µg/mL
